Experimental findings from paper PMC5547389, “Structure-activity relationships and molecular docking studies of chromene and chromene based azo chromophores: A novel series of potent antimicrobial and anticancer agents” (EXCLI Journal, 2017) are described below.

What all share (format): cell-based
Assay [1] has as its system Pseudomonas aeruginosa (RCMB 010043). Description: MIC by serial dilution method. The note with it: RCMB010043, Gm-ve, read-out: Minimum inhibitory concentration, MIC, P.A. A digest of the protocol: (§1)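 Step one: agar diffusion well assay for antibacterial and antifungal activity. Step two: serial dilution to obtain […] minimum inhibitory concentrations, run alongside ampicillin, ciprofloxacin, gentamicin and amphotericin B as positive controls.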

The subject of assay [2] is Candida albicans (RCMB 05036). Description: MIC by serial dilution method. As to conditions: RCMB05036, fungi, read-out: Minimum inhibitory concentration, MIC, C.A. A digest of the protocol:
as §1

For assay [3], the system named is Candida albicans (RCMB 05036). Description: Well diffusion assay (inhibition zone). The note with it: RCMB05036, 5 mg/mL in DMSO, fungi, read-out: Inhibition Zone (IZ) diameter, C.A. The procedure, abridged:
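Agar well diffusion with 10 mm wells, nutrient agar for bacteria and malt extract agar for fungi. Plates were incubated 24-48 h at 37 °C for bacteria or 28 °C for fungi. Inhibition zone diameters were measured in mm, in triplicate.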
For orientation: A growth-free zone around the sample is the usual read-out of agar diffusion tests.

The structures appear in SMILES notation. Converted amounts (≈) assume the structure as drawn.

Turning to `N#CC1=C(N)Oc2c(N)cc3ccccc3c2C1c1ccc(Cl)cc1` (stereo not drawn) [4b, 3,5-diamino-1-(4-chlorophenyl)-1H-benzo[f]chromene-2-carbonitrile], the MIC in assay [1] was found to be 125 µg/mL (≈ 359 µM).
As to `N#CC1=C(N)Oc2c(N)cc3ccccc3c2C1c1ccc(F)cc1` (stereo not drawn) [4a, 3,5-diamino-1-(4-fluorophenyl)-1H-benzo[f]chromene-2-carbonitrile], the MIC in assay [2] was 125 µg/mL (≈ 377 µM). For the same compound, the zone of inhibition at 5000 µg/mL in assay [3] is 9.4 mm.
